#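 Test compounds were applied to cells in 96-well plates for 48 hours at 5 doses. GI50: concentration for 50% inhibition of growth.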 Calls of active or inactive are those of the source. Rule as the data show it: active = GI50 up to about 1.1 µM and inactive = higher.
# Columns and labels:
# Test in all cases: growth of human tumour cells (NCI), 48 h
# HOP-18 = tested on: HOP-18
# LOX IMVI = tested on: LOX IMVI
# NCI-H23 = tested on: NCI-H23
# Malme-3M = tested on: Malme-3M
# SF-539 = tested on: SF-539
# SNB-78 = tested on: SNB-78
# UACC-62 = tested on: UACC-62
# RPMI-8226 = tested on: RPMI-8226
# SF-295 = tested on: SF-295
# HCC 2998 = tested on: HCC 2998
# HOP-62 = tested on: HOP-62
# SW-620 = tested on: SW-620
# UACC-257 = tested on: UACC-257
# SNB-75 = tested on: SNB-75
# RXF 631 = tested on: RXF 631
# SF-268 = tested on: SF-268
# A549 = tested on: A549
# XF498 = tested on: XF498
# LXFL 529 = tested on: LXFL 529
# UO-31 = tested on: UO-31
# SK-OV-3 = tested on: SK-OV-3
# HOP-92 = tested on: HOP-92
# SN12C = tested on: SN12C
# HT-29 = tested on: HT-29
# 786-0 = tested on: 786-0
# COLO 205 = tested on: COLO 205
# K562 = tested on: K562
# SK-MEL-5 = tested on: SK-MEL-5
# HCT-116 = tested on: HCT-116
# OVCAR-8 = tested on: OVCAR-8
# KM-20L2 = tested on: KM-20L2
# DMS-114 = tested on: DMS-114
# HCT-15 = tested on: HCT-15
# SNB-19 = tested on: SNB-19
# NCI-H522 = tested on: NCI-H522
# KM12 = tested on: KM12
# EKVX = tested on: EKVX
# CAKI-1 = tested on: CAKI-1
# M14 = tested on: M14
# OVCAR-5 = tested on: OVCAR-5
# A498 = tested on: A498
# TK-10 = tested on: TK-10
# OVCAR-3 = tested on: OVCAR-3
# SK-MEL-28 = tested on: SK-MEL-28
# SR = tested on: SR
# DLD-1 = tested on: DLD-1
# SK-MEL-2 = tested on: SK-MEL-2
# ACHN = tested on: ACHN
# U-251 = tested on: U-251
# DMS-273 = tested on: DMS-273
# MOLT-4 = tested on: MOLT-4
# NCI-H226 = tested on: NCI-H226
# OVCAR-4 = tested on: OVCAR-4
# RXF 393 = tested on: RXF 393
# IGROV-1 = tested on: IGROV-1
# M19-MEL = tested on: M19-MEL
smiles,measurement,setting,value
NCCNC(=O)c1cccc2cc3ccccc3nc12,GI50,HOP-18,14700 nM (inactive)
same,GI50,LOX IMVI,1240 nM (inactive)
same,GI50,NCI-H23,2620 nM (inactive)
same,GI50,Malme-3M,495 nM (active)
same,GI50,SF-539,4350 nM (inactive)
same,GI50,SNB-78,8630 nM (inactive)
same,GI50,UACC-62,2750 nM (inactive)
same,GI50,RPMI-8226,3850 nM (inactive)
same,GI50,SF-295,2940 nM (inactive)
same,GI50,HCC 2998,2650 nM (inactive)
same,GI50,HOP-62,1860 nM (inactive)
same,GI50,SW-620,1420 nM (inactive)
same,GI50,UACC-257,2820 nM (inactive)
same,GI50,SNB-75,5260 nM (inactive)
same,GI50,RXF 631,4470 nM (inactive)
same,GI50,SF-268,1610 nM (inactive)
same,GI50,A549,1270 nM (inactive)
same,GI50,XF498,2040 nM (inactive)
same,GI50,LXFL 529,4950 nM (inactive)
same,GI50,UO-31,5260 nM (inactive)
same,GI50,SK-OV-3,4820 nM (inactive)
same,GI50,HOP-92,19600 nM (inactive)
same,GI50,SN12C,2450 nM (inactive)
same,GI50,HT-29,1870 nM (inactive)
same,GI50,786-0,7600 nM (inactive)
same,GI50,COLO 205,1070 nM (active)
same,GI50,K562,2150 nM (inactive)
same,GI50,SK-MEL-5,2230 nM (inactive)
same,GI50,HCT-116,1110 nM (active)
same,GI50,OVCAR-8,2080 nM (inactive)
same,GI50,KM-20L2,1610 nM (inactive)
same,GI50,DMS-114,1770 nM (inactive)
same,GI50,HCT-15,1910 nM
same,GI50,SNB-19,4090 nM (inactive)
same,GI50,NCI-H522,3570 nM (inactive)
same,GI50,KM12,4030 nM (inactive)
same,GI50,EKVX,3700 nM (inactive)
same,GI50,CAKI-1,3150 nM (inactive)
same,GI50,M14,3530 nM (inactive)
same,GI50,OVCAR-5,3740 nM (inactive)
same,GI50,A498,1810 nM (inactive)
same,GI50,TK-10,2300 nM (inactive)
same,GI50,OVCAR-3,3660 nM (inactive)
same,GI50,SK-MEL-28,3000 nM (inactive)
same,GI50,SR,439 nM (active)
same,GI50,DLD-1,2770 nM (inactive)
same,GI50,SK-MEL-2,2470 nM (inactive)
same,GI50,ACHN,1020 nM (active)
same,GI50,U-251,2110 nM (inactive)
same,GI50,DMS-273,2300 nM (inactive)
same,GI50,MOLT-4,333 nM (active)
same,GI50,NCI-H226,1430 nM (inactive)
same,GI50,OVCAR-4,3750 nM (inactive)
same,GI50,RXF 393,2310 nM (inactive)
same,GI50,IGROV-1,3480 nM (inactive)
same,GI50,M19-MEL,1790 nM (inactive)

# Reference: ChEMBL document CHEMBL1201862, “PubChem BioAssay data set” (2004)
